According to ChEMBL document CHEMBL3217538, “Antimycobacterial activity of spirooxindolo-pyrrolidine, pyrrolizine and pyrrolothiazole hybrids obtained by a three-component regio- and stereoselective 1,3-dipolar cycloaddition” (2011):
Values after ≈ are worked out from the molar mass of the structure shown.

Key:
[1] = system: Mycobacterium tuberculosis; assay: Antimycobacterial activity against Mycobacterium tuberculosis H37Rv by agar dilution method; format: functional
[2] = system: Mycobacterium tuberculosis; assay: Ratio of pyrazinamide MIC99 to compound MIC99 for Mycobacterium tuberculosis H37Rv; format: functional

## O=C1Nc2ccccc2[C@]12NC(c1ccccc1)C([N+](=O)[O-])C2c1ccccc1 (stereo partly drawn)
[1]
  MIC99: > 64.9 µM

## O=C1Nc2ccccc2[C@]12NC(c1ccccc1)C([N+](=O)[O-])C2c1cccc(Cl)c1 (stereo partly drawn)
[2]
  Ratio: 3.4
[1]
  MIC99: 14.9 µM (≈ 6.26 µg/mL)

## O=C1Nc2ccccc2[C@]12NC(c1ccccc1)C([N+](=O)[O-])C2c1ccc(Br)cc1 (stereo partly drawn)
[2]
  Ratio: 1.9
[1]
  MIC99: 26.9 µM (≈ 12.5 µg/mL)

## O=C1Nc2ccccc2[C@@]12C(c1ccc(Cl)cc1)C([N+](=O)[O-])C1CCCN12 (stereo partly drawn)
[2]
  Ratio: 1.6
[1]
  MIC99: 32.6 µM (≈ 12.5 µg/mL)

## O=C1Nc2ccccc2[C@]12NC(c1ccccc1)C([N+](=O)[O-])C2c1ccc(F)cc1 (stereo partly drawn)
[2]
  Ratio: 1.6
[1]
  MIC99: 31 µM (≈ 12.5 µg/mL)

## O=C1Nc2ccccc2[C@@]12C(c1cccc([N+](=O)[O-])c1)C([N+](=O)[O-])C1CCCN12 (stereo partly drawn)
[1]
  MIC99: 63.4 µM (≈ 25 µg/mL)

## O=C1Nc2ccccc2[C@]12NC(c1ccccc1)C([N+](=O)[O-])C2c1cccc([N+](=O)[O-])c1 (stereo partly drawn)
[2]
  Ratio: 1.75
[1]
  MIC99: 29 µM (≈ 12.5 µg/mL)

## O=C1Nc2ccccc2[C@@]12C(c1cccc([N+](=O)[O-])c1)C([N+](=O)[O-])C1CSCN12 (stereo partly drawn)
[2]
  Ratio: 6.7
[1]
  MIC99: 7.6 µM (≈ 3.13 µg/mL)

## O=C1Nc2ccccc2[C@@]12C(c1ccc(Cl)cc1)C([N+](=O)[O-])C1CSCN12 (stereo partly drawn)
[2]
  Ratio: 3.3
[1]
  MIC99: 15.5 µM (≈ 6.23 µg/mL)

## Cc1ccc(C2C([N+](=O)[O-])C(c3ccccc3)N[C@@]23C(=O)Nc2ccccc23)cc1 (stereo partly drawn)
[1]
  MIC99: > 62.6 µM

## CC[C@@H](CO)NCCN[C@@H](CC)CO [ETHAMBUTOL]
[1]
  MIC99: 7.6 µM (≈ 1.55 µg/mL)

## COc1ccc(C2C([N+](=O)[O-])C3CCCN3[C@@]23C(=O)Nc2ccccc23)cc1 (stereo partly drawn)
[1]
  MIC99: 65.9 µM (≈ 25 µg/mL)

## O=C1Nc2ccccc2[C@@]12C(c1cccc(Cl)c1)C([N+](=O)[O-])C1CSCN12 (stereo partly drawn)
[2]
  Ratio: 6.5
[1]
  MIC99: 7.8 µM (≈ 3.13 µg/mL)

## NC(=O)c1cnccn1 [PYRAZINAMIDE]
[1]
  MIC99: 50.1 µM (≈ 6.17 µg/mL)

## Cc1ccc(C2C([N+](=O)[O-])C3CCCN3[C@@]23C(=O)Nc2ccccc23)cc1 (stereo partly drawn)
[1]
  MIC99: 68.8 µM (≈ 25 µg/mL)

## O=C1Nc2ccccc2[C@@]12C(c1ccccc1)C([N+](=O)[O-])C1CCCN12 (stereo partly drawn)
[1]
  MIC99: 71.6 µM (≈ 25 µg/mL)

## O=C1Nc2ccccc2[C@@]12C(c1ccc(F)cc1)C([N+](=O)[O-])C1CSCN12 (stereo partly drawn)
[2]
  Ratio: 6.2
[1]
  MIC99: 8.2 µM (≈ 3.16 µg/mL)

## O=C1Nc2ccccc2[C@@]12C(c1ccc(Br)cc1)C([N+](=O)[O-])C1CCCN12 (stereo partly drawn)
[1]
  MIC99: 58.4 µM (≈ 25 µg/mL)

## NNC(=O)c1ccncc1 [ISONIAZID]
[1]
  MIC99: 0.4 µM (≈ 0.0549 µg/mL)

## COc1ccc(C2C([N+](=O)[O-])C3CSCN3[C@@]23C(=O)Nc2ccccc23)cc1 (stereo partly drawn)
[1]
  MIC99: 62.9 µM (≈ 25 µg/mL)

## COc1cc(C2C([N+](=O)[O-])C3CCCN3[C@@]23C(=O)Nc2ccccc23)cc(OC)c1OC (stereo partly drawn)
[1]
  MIC99: > 56.9 µM

## O=C1Nc2ccccc2[C@@]12C(c1cccc(Cl)c1)C([N+](=O)[O-])C1CCCN12 (stereo partly drawn)
[2]
  Ratio: 1.6
[1]
  MIC99: 32.6 µM (≈ 12.5 µg/mL)

## COc1ccc(C2C([N+](=O)[O-])C(c3ccccc3)N[C@@]23C(=O)Nc2ccccc23)cc1 (stereo partly drawn)
[1]
  MIC99: > 60.2 µM

## COc1ccc(OC)c(C2C([N+](=O)[O-])C3CCCN3[C@@]23C(=O)Nc2ccccc23)c1 (stereo partly drawn)
[1]
  MIC99: > 61.1 µM

## COc1ccc(OC)c(C2C([N+](=O)[O-])C(c3ccccc3)N[C@@]23C(=O)Nc2ccccc23)c1 (stereo partly drawn)
[1]
  MIC99: > 56.1 µM

## O=C1Nc2ccccc2[C@]12NC(c1ccccc1)C([N+](=O)[O-])C2c1ccc(Cl)cc1 (stereo partly drawn)
[2]
  Ratio: 1.7
[1]
  MIC99: 29.8 µM (≈ 12.5 µg/mL)

## O=C1Nc2ccccc2[C@@]12C(c1ccc(F)cc1)C([N+](=O)[O-])C1CCCN12 (stereo partly drawn)
[1]
  MIC99: 68.1 µM (≈ 25 µg/mL)
